Here are results for one molecule from patent US20230338396A1, “CANNABIDIOL AS A T[…] FOR COVID-19” (AUGUSTA UNIVERSITY RESEARCH INSTITUTE, INC., priority 2020, published 2023).

Entries after “also recorded” stand apart in the source; their conditions may differ.

The subject of one data set is T cells. Briefly: CBD inhalers in healthy young and older subjects, T cells. The data set is classed as in vivo. The conditions noted are these: CBD inhaler, 20 mg of CBD for 120 min.
For data set [1], the system named is Poly(I:C)-induced ARDS. The experiment in a line: Poly(I:C)-induced ARDS in mice, apelin modulation by CBD (Example 2). The data set is classed as in vivo, C57Bl/6 mice. The settings on record: CBD 5 mg/kg intraperitoneal, 3 doses, after Poly(I:C).
A further data set relates to Acute Lung Injury (ALI). Briefly: Inhaled CBD in Acute Lung Injury (ALI)/ARDS murine model with Poly(I:C). The data set is classed as in vivo.
The subject of data set [2] is Poly(I:C)-induced ARDS. The data set is classed as in vivo, C57BL/6 mice. The conditions noted are these: CBD 5 mg/kg intraperitoneal.
Setting [3] is: inhaled CBD compared to CBD injection.
[4] abbreviates: inhaled CBD, Poly(I:C)-treated mice.

For `C=C(C)[C@@H]1CCC(C)=C[C@H]1c1c(O)cc(CCCCC)cc1O` [CBD, cannabidiol], in the data set on T cells, the “effects on T cells frequencies or functionality” value was “no negative effects”. Besides, in the data set on Poly(I:C)-induced ARDS [1] (blood), the “T cells in whole blood (flow cytometry)” value is “returned decreased T cells and increased neutrophils towards the normal level”; the “apelin expression in blood (flow cytometry)” value is reported as “normalized the expression level of apelin in the blood; also recorded: enhanced expression of apelin in the blood”; the “neutrophils in whole blood (flow cytometry)” value was “returned decreased T cells and increased neutrophils towards the normal level”. Further, in the data set on Poly(I:C)-induced ARDS [1] (lung), the “apelin expression in lung tissue (immunofluorescence)” value is reported as “normalized the apelin expression in the lung tissues; also recorded: increased apelin expression towards control levels” and the “pathological features of lung (histology, Masson's trichrome)” value is on record as “completely or partially abolished”. Further, in the data set on Acute Lung Injury (ALI) (setting [3]), the “IL-6 production in lung tissue” value is listed as “further down regulate IL-6 production” and the activated infiltrating leukocytes result is “decreased activated infiltrating leukocytes”. Besides, in the data set on Acute Lung Injury (ALI) (setting [4]), the “destruction of lung (H&E)” value is listed as “able to prevent further destruction of lung”; the “frequencies of T cells (lymphopenia) in peripheral blood and lung tissue” value is recorded as “able to reinstate the frequencies of T cells”. In addition, in the data set with Poly(I:C)-induced ARDS [2] (3 doses, after Poly(I:C)), the “expression of IL-6 in lung (immunohistochemistry)” value is “reduced the expression of IL-6”; the “frequencies of neutrophils in the lung (immunohistochemistry)” value was “lowered the frequencies of neutrophils in the lung”; the “inflammatory indices overall (flow cytometry of blood and lung)” value was “reversed all these inflammatory indices and partially re-established homeostasis”; the “lung structural damage and symptoms (inflammatory infiltrate, fibrosis, hypertrophy, pulmonary edema; H&E histology)” value was “improves lung structure and function; also recorded: totally or partially reversed and returned to the level and condition of the normal”. Also, in the data set with Poly(I:C)-induced ARDS [2] (blood), the “level of proinflammatory cytokines in blood (IL-6, IFNγ, TNFα)” value is “reducing the number of neutrophils and monocytes as well as the level of proinflammatory cytokines significantly”; the “number of neutrophils and monocytes in blood (flow cytometry)” value is “reducing the number of neutrophils and monocytes”. Further, the “lymphocyte frequencies in blood (flow cytometry)” value with Poly(I:C)-induced ARDS [2] (blood, p<0.01) is given as “enhanced the rate of lymphocyte frequencies markedly”. The “number of infiltrating neutrophils and macrophages in lung (flow cytometry)” value with Poly(I:C)-induced ARDS [2] (lung) is “downregulated the number of infiltrating neutrophils and macrophages markedly”. In addition, in the data set on Poly(I:C)-induced ARDS [2] (lung, p<0.05), the “level of cytokines in lung (flow cytometry)” value is recorded as “reduced the level of cytokines significantly”.
